In patent US7572786B2, “Substituted 1-piperidin-3-yl-4-piperidin-4-yl-piperazine derivatives and their use as neurokinin antagonists” (Janssen Pharmaceutica, N.V., priority 2002, dated 2009):

Experiments:
Format in all cases: cell-based
NK1 = NK1 (Homo sapiens, UniProt P25103); assay: Signal transduction (ST), intracellular Ca++ (FLIPR), NK1 antagonism; details: for IC50: read-out: pIC50 NK1 (converted)
Description: (§1) This test evaluates in vitro functional NK1 antagonistic activity. For the measurements of intracellular Ca^++ concentrations the cells were grown on 96-well (black wall/transparent bottom) plates from Costar for 2 days until they reached confluence. The cells were loaded with 2 μM Fluo3 in DMEM containing 0.1% BSA and 2.5 mM probenecid for 1 h at 37° C. […] The cells were preincubated with a concentration range of antagonists for 20 min at RT and Ca^++-signals after addition of the agonists were measured in a Fluorescence Image Plate Reader (FLIPR from Molecular Devices, Crawley, England). The peak of the Ca^++-transient was considered as the relevant signal and the mean values of corresponding wells were analysed as described below.
(§2) The sigmoidal dose response curves were analysed by computerised curve-fitting, using the GraphPad Program. […] For antagonist responses the IC50-value was calculated using non-linear regression.

NK3 = molecular target: T1, NK3 (Homo sapiens, UniProt P29371); assay: Signal transduction (ST), intracellular Ca++ (FLIPR), NK3; details: read-out: pIC50 NK3 (converted)
T1 sequence (P29371 1-465): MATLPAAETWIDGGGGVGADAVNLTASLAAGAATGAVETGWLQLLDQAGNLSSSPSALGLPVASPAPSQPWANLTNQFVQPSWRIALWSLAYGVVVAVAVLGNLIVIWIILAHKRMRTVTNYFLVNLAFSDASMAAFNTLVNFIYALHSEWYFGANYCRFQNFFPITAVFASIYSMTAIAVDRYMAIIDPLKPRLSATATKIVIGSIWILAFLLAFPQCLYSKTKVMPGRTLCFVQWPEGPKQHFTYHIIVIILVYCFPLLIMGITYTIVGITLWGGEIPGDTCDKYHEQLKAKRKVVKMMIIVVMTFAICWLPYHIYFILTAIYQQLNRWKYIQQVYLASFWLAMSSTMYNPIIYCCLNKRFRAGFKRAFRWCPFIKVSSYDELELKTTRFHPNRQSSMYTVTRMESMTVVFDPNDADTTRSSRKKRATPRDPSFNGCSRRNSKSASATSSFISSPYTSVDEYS
Description: [The source words this procedure for another target and reports this target under the same test.] as §1, §2

NK2 = molecular target: T2, NK2 (Homo sapiens, UniProt P21452); assay: Signal transduction (ST), intracellular Ca++ (FLIPR), NK2; details: read-out: pIC50 NK2 (converted)
T2 sequence (P21452 1-398): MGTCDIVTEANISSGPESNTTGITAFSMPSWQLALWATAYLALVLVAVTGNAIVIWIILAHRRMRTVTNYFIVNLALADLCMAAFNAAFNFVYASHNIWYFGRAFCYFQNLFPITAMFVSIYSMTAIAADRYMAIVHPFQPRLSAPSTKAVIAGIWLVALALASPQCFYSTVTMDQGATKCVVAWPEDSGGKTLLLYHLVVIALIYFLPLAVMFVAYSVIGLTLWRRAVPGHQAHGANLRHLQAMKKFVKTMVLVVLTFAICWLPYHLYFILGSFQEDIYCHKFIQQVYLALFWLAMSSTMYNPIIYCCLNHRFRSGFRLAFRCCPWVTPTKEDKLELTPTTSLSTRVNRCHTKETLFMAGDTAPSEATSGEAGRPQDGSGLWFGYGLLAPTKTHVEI
Description: [The source words this procedure for another target and reports this target under the same test.] as §1, §2

NK1, sequence (P25103 whole entry): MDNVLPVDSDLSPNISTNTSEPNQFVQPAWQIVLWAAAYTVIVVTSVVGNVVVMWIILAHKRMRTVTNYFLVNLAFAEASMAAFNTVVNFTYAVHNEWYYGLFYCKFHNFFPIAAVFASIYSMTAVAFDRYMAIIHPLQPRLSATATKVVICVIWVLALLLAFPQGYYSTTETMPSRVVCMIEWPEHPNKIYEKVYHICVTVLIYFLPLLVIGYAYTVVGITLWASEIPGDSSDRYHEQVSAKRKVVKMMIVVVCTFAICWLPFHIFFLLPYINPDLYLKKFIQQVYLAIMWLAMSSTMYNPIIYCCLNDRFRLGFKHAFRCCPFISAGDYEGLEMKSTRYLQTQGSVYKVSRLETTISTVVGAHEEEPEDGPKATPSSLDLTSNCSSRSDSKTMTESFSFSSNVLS

IC50 (NK1) [nM] | IC50 (NK3) [nM] | IC50 (NK2) [nM] | Structure (SMILES) | pIC50 NK1 (NK1)
 |  |  | O=C(c1cc(C(F)(F)F)cc(C(F)(F)F)c1)N1CCC(N2CCN(C3CCCNC3)CC2)CC1Cc1ccccc1 (single isomer, unassigned) [Compound 109] | 7.3
158 |  |  | O=C(c1ccoc1)N1CCCC(N2CCCN(C3CCN(C(=O)c4cc(C(F)(F)F)cc(C(F)(F)F)c4)C(Cc4ccccc4)C3)CC2)C1 (single isomer, unassigned) [Compound 112] | 
39.8 | 6310 |  | O=C(C1CCOC1)N1CCCC(N2CCCN(C3CCN(C(=O)c4cc(C(F)(F)F)cc(C(F)(F)F)c4)C(Cc4ccccc4)C3)CC2)C1 (single isomer, unassigned) [Compound 115] | 
50.1 | 3980 |  | O=C(c1ccoc1)N1CCCC(N2CCCN(C3CCN(C(=O)c4cc(C(F)(F)F)cc(C(F)(F)F)c4)C(Cc4ccccc4)C3)CC2)C1 (single isomer, unassigned) [Compound 116] | 
126 | 7940 |  | O=C(C1CCOC1)N1CCCC(N2CCCN(C3CCN(C(=O)c4cc(C(F)(F)F)cc(C(F)(F)F)c4)C(Cc4ccccc4)C3)CC2)C1 (single isomer, unassigned) [Compound 121] | 
50.1 |  |  | O=C(c1cc(C(F)(F)F)cc(C(F)(F)F)c1)N1CCC(N2CCN(C3CCCN(Cc4ccccc4)C3)CC2)CC1Cc1ccccc1 (stereo not shown) [Compound 1] | 
20 |  |  | O=C(c1cc(C(F)(F)F)cc(C(F)(F)F)c1)N1CCC(N2CCN(C3CCCNC3)CC2)CC1Cc1ccccc1 (stereo not shown) [Compound 2] | 
79.4 | 2000 |  | Cc1cc(C)cc(C(=O)N2CCCC(N3CCN(C4CCN(C(=O)c5cc(C(F)(F)F)cc(C(F)(F)F)c5)C(Cc5ccccc5)C4)CC3)C2)c1 (stereo not shown) [Compound 3] | 
50.1 | 1000 |  | COc1ccc(S(=O)(=O)N2CCCC(N3CCN([C@H]4CCN(C(=O)c5cc(C(F)(F)F)cc(C(F)(F)F)c5)[C@H](Cc5ccccc5)C4)CC3)C2)cc1F (stereo partly shown) [Compound 7] | 
20 | 251 |  | O=C(c1ccccc1)N1CCCC(N2CCN([C@H]3CCN(C(=O)c4cc(C(F)(F)F)cc(C(F)(F)F)c4)[C@H](Cc4ccccc4)C3)CC2)C1 (stereo partly shown) [Compound 8] | 
25.1 | 3160 |  | O=C(c1cc(F)ccc1F)N1CCCC(N2CCN([C@H]3CCN(C(=O)c4cc(C(F)(F)F)cc(C(F)(F)F)c4)[C@H](Cc4ccccc4)C3)CC2)C1 (stereo partly shown) [Compound 12] | 
 |  |  | Cc1cc(C)cc(C(=O)N2CCCC(N3CCN([C@@H]4CCN(C(=O)c5cc(C(F)(F)F)cc(C(F)(F)F)c5)[C@H](Cc5ccccc5)C4)CC3)C2)c1.O=C(O)/C=C/C(=O)O.O=C(O)/C=C/C(=O)O (stereo partly shown) [Compound 13] | 6.3
12.6 | 2000 |  | CC1(C(=O)N2CCCC(N3CCN([C@H]4CCN(C(=O)c5cc(C(F)(F)F)cc(C(F)(F)F)c5)[C@H](Cc5ccccc5)C4)CC3)C2)CC1 (stereo partly shown) [Compound 14] | 
12.6 | 1000 |  | O=C(C1CCOC1)N1CCCC(N2CCN([C@H]3CCN(C(=O)c4cc(C(F)(F)F)cc(C(F)(F)F)c4)[C@H](Cc4ccccc4)C3)CC2)C1 (stereo partly shown) [Compound 16] | 
31.6 | 2510 |  | O=C(c1ccoc1)N1CCCC(N2CCN(C3CCN(C(=O)c4cc(C(F)(F)F)cc(C(F)(F)F)c4)C(Cc4ccccc4)C3)CC2)C1 (stereo not shown) [Compound 17] | 
20 | 2510 |  | O=C(c1ccco1)N1CCCC(N2CCN([C@H]3CCN(C(=O)c4cc(C(F)(F)F)cc(C(F)(F)F)c4)[C@H](Cc4ccccc4)C3)CC2)C1 (stereo partly shown) [Compound 18] | 
25.1 | 2000 |  | Cc1occc1C(=O)N1CCCC(N2CCN([C@H]3CCN(C(=O)c4cc(C(F)(F)F)cc(C(F)(F)F)c4)[C@H](Cc4ccccc4)C3)CC2)C1 (stereo partly shown) [Compound 19] | 
20 | 1260 |  | O=C(c1cc(C(F)(F)F)cc(C(F)(F)F)c1)N1CC[C@H](N2CCN(C3CCCN(C(=O)n4ccnc4)C3)CC2)C[C@H]1Cc1ccccc1 (stereo partly shown) [Compound 21] | 
25.1 | 3980 |  | O=C(C(=O)N1CCCC(N2CCN(C3CCN(C(=O)c4cc(C(F)(F)F)cc(C(F)(F)F)c4)C(Cc4ccccc4)C3)CC2)C1)c1ccco1 (stereo not shown) [Compound 24] | 

IC50 (NK1) [nM] | IC50 (NK3) [nM] | IC50 (NK2) [nM] | Structure (SMILES) | pIC50 NK1 (NK1)
20 | 1260 |  | O=C(c1cc(C(F)(F)F)cc(C(F)(F)F)c1)N1CC[C@H](N2CCN(C3CCCN(S(=O)(=O)c4ccccc4Cl)C3)CC2)C[C@H]1Cc1ccccc1 (stereo partly shown) [Compound 27] | 
25.1 | 3160 |  | COc1ccc(C)cc1S(=O)(=O)N1CCCC(N2CCN([C@H]3CCN(C(=O)c4cc(C(F)(F)F)cc(C(F)(F)F)c4)[C@H](Cc4ccccc4)C3)CC2)C1 (stereo partly shown) [Compound 31] | 
39.8 | 1000 |  | Cc1csc(C)c1S(=O)(=O)N1CCCC(N2CCN([C@H]3CCN(C(=O)c4cc(C(F)(F)F)cc(C(F)(F)F)c4)[C@H](Cc4ccccc4)C3)CC2)C1 (stereo partly shown) [Compound 33] | 
50.1 | 2000 |  | O=C(c1cc(C(F)(F)F)cc(C(F)(F)F)c1)N1CC[C@H](N2CCN(C3CCCN(S(=O)(=O)c4ccc(-c5ccccn5)s4)C3)CC2)C[C@H]1Cc1ccccc1 (stereo partly shown) [Compound 34] | 
10 | 2000 |  | CC(C)S(=O)(=O)N1CCCC(N2CCN([C@H]3CCN(C(=O)c4cc(C(F)(F)F)cc(C(F)(F)F)c4)[C@H](Cc4ccccc4)C3)CC2)C1 (stereo partly shown) [Compound 35] | 
7.94 | 2510 |  | Cc1cc(C(=O)N2CCCC(N3CCN([C@H]4CCN(C(=O)c5cc(C(F)(F)F)cc(C(F)(F)F)c5)[C@H](Cc5ccccc5)C4)CC3)C2)n(C)n1 (stereo partly shown) [Compound 42] | 
63.1 | 5010 |  | Cc1c(S(=O)(=O)N2CCCC(N3CCN([C@H]4CCN(C(=O)c5cc(C(F)(F)F)cc(C(F)(F)F)c5)[C@H](Cc5ccccc5)C4)CC3)C2)cnn1-c1ccccc1 (stereo partly shown) [Compound 44] | 
251 |  | 2000 | O=C(c1cc(C(F)(F)F)cc(C(F)(F)F)c1)N1CC[C@H](N2CCN(C3CCCN(S(=O)(=O)c4ccc(COCc5ccccc5)cc4)C3)CC2)C[C@H]1Cc1ccccc1 (stereo partly shown) [Compound 58] | 
5.01 | 6310 |  | CC(=O)N1CCC[C@H]1C(=O)N1CCCC(N2CCN([C@H]3CCN(C(=O)c4cc(C(F)(F)F)cc(C(F)(F)F)c4)[C@H](Cc4ccccc4)C3)CC2)C1 (stereo partly shown) [Compound 60] | 
126 | 5010 |  | O=C(c1ccc(CCOCc2ccccc2)s1)N1CCCC(N2CCN(C3CCN(C(=O)c4cc(C(F)(F)F)cc(C(F)(F)F)c4)C(Cc4ccccc4)C3)CC2)C1 (stereo not shown) [Compound 93] | 
15.8 | 1260 |  | O=C(c1cc(C(F)(F)F)cc(C(F)(F)F)c1)N1CC[C@H](N2CCN(C3CCCN(S(=O)(=O)c4ccc(O)c(F)c4)C3)CC2)C[C@H]1Cc1ccccc1 (stereo partly shown) [Compound 107] | 
79.4 |  |  | O=C(c1cc(C(F)(F)F)cc(C(F)(F)F)c1)N1CCC(N2CCN(C3CCCNC3)CC2)CC1Cc1ccccc1 (stereo not shown) [Compound 108] | 
200 |  |  | O=C(c1cc(C(F)(F)F)cc(C(F)(F)F)c1)N1CC[C@@H](N2CCCN(C3CCCN(Cc4ccccc4)C3)CC2)C[C@H]1Cc1ccccc1 (stereo partly shown) [Compound 110] | 
251 | 7940 |  | O=C(c1cc(C(F)(F)F)cc(C(F)(F)F)c1)N1CC[C@H](N2CCCN(C3CCCN(Cc4ccccc4)C3)CC2)C[C@H]1Cc1ccccc1 (stereo partly shown) [Compound 111] | 
126 | 7940 |  | O=C(C1CC1)N1CCCC(N2CCCN([C@@H]3CCN(C(=O)c4cc(C(F)(F)F)cc(C(F)(F)F)c4)[C@H](Cc4ccccc4)C3)CC2)C1 (stereo partly shown) [Compound 114] | 
63.1 | 2510 |  | O=C(c1ccccc1Cl)N1CCCC(N2CCCN([C@H]3CCN(C(=O)c4cc(C(F)(F)F)cc(C(F)(F)F)c4)[C@H](Cc4ccccc4)C3)CC2)C1 (stereo partly shown) [Compound 118] | 
126 |  |  | O=C(c1ccccc1Cl)N1CCCC(N2CCCN([C@@H]3CCN(C(=O)c4cc(C(F)(F)F)cc(C(F)(F)F)c4)[C@H](Cc4ccccc4)C3)CC2)C1 (stereo partly shown) [Compound 119] | 
200 | 7940 |  | O=C(c1cc(C(F)(F)F)cc(C(F)(F)F)c1)N1CC[C@@H](N2CCCN(C3CCCN(S(=O)(=O)c4cccs4)C3)CC2)C[C@H]1Cc1ccccc1 (stereo partly shown) [Compound 120] | 
100 |  |  | O=C(c1cc(C(F)(F)F)cc(C(F)(F)F)c1)N1CC[C@H](N2CCCN(C3CCCN(S(=O)(=O)c4cccs4)C3)CC2)C[C@H]1Cc1ccccc1 (stereo partly shown) [Compound 122] | 
